In PubChem BioAssay (NCI) one finds GI50 and TGI data, which are given here for seven compounds.

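Following 48 hours of exposure in 96-well plates, responses at five concentrations were used to interpolate endpoints linearly. Abbreviation: GI50, concentration required for 50% inhibition of growth. TGI: concentration producing complete growth inhibition.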 Some results are limits rather than exact numbers.

Test in all cases: NCI-60 cell line screen, 48 h
Assay [1] deals with UACC-62 melanoma.
In assay [2] the test system is SK-MEL-28 melanoma.
For assay [3], the system named is MALME-3M melanoma.
Assay [4] has as its system DU-145 prostate.
Assay [5] relates to SK-MEL-5 melanoma.
Assay [6] deals with 786-0 renal.
Assay [7] relates to NCI-H522 lung.
Assay [8] concerns OVCAR-4 ovarian.
The test system of assay [9] is NCI-H23 lung.
Assay [10] relates to LOX IMVI melanoma.

As to `CC[n+]1ccc2c(c1)C(=O)c1nccc3c1c-2nc1ccccc13`, the GI50 in assay [1] was 0.763 µM; in assay [2], 1.84 µM; in assay [3] it was 0.762 µM; in assay [4], 1.03 µM; in assay [5], 1.35 µM; in assay [6], 0.768 µM. The GI50 in assay [7] is 0.538 µM; in [8] it was 0.941 µM; in [9], 0.28 µM; in [10] it was 2.19 µM. Also, the TGI worked out at 2.52 µM in assay [1]; 7.64 µM in assay [2]; 2.03 µM in [3]; 4.31 µM in assay [4]; 5.54 µM in assay [5]; 2.97 µM in assay [6]. Moreover, the TGI in [7] came out at 1.45 µM; in assay [8], 4.1 µM; in assay [9] it was 2.64 µM; in assay [10] it was 7.93 µM.
On to `COc1ccc(CNC(=O)COc2ccc(/C=N/Nc3nc4ccccc4s3)cc2)cc1`, for which the GI50 in assay [1] was 2.32 µM; in assay [2] it was 4.35 µM; in assay [3], 1.55 µM; in assay [4], 3.8 µM; in assay [5], 2.01 µM; in [6] it was 2.37 µM. For the same compound, the GI50 was 2.44 µM in assay [7], 1.56 µM in assay [8], 3.05 µM in [9] and 3.04 µM in [10]. Moreover, the TGI in assay [1] is 11.8 µM; in [2], > 100 µM; in [3], 3.89 µM; in assay [4], > 100 µM; in assay [5], 5.06 µM; in assay [6], 5.9 µM. For the same compound, the TGI is 9.63 µM in assay [7], 5 µM in assay [8], 12.6 µM in assay [9] and > 100 µM in assay [10].
As to `NNC(=O)c1cnn(-c2ccnc3c(C(F)(F)F)cccc23)c1N`, the GI50 in assay [1], in assay [2], in [3], in [4], in assay [5] and in assay [6] was > 100 µM each time. The GI50 in [7], in assay [8], in [9] and in assay [10] was > 100 µM each time. Moreover, the TGI in assay [1], in [2], in assay [3], in assay [4], in [5] and in assay [6] was > 100 µM throughout. Besides, the TGI in assay [7], in assay [8], in assay [9] and in assay [10] was > 100 µM each time.
For `CC1(C)N=C(N)N=C(N)N1c1ccc(CCCCc2ccc(S(=O)(=O)F)cc2Cl)c(Cl)c1`, the TGI in [1] is 46.9 µM; in [2], 13.4 µM; in [3], 33.8 µM; in assay [4], 90.4 µM; in assay [5], 31.7 µM; in assay [6], 76.9 µM. Besides, the TGI in assay [7] was 31.4 µM; in [8], > 468 µM; in assay [9], 200 µM; in [10] it was 43.9 µM.
As for `COc1cccc(-c2nn(-c3ccccc3)cc2-c2ccnc(NCCCNS(=O)(=O)c3cccc(F)c3)c2)c1`, the GI50 is 4.65 µM in assay [1]; 6.82 µM in assay [2]; 5.16 µM in assay [3]; 6.33 µM in assay [4]; 1.86 µM in assay [5]; 4.01 µM in assay [6]. Moreover, the GI50 was 2.05 µM in [7], 3.28 µM in [8], 4.47 µM in assay [9] and 4.05 µM in assay [10]. In addition, the TGI in assay [1] is > 100 µM; in assay [2], > 100 µM; in [3] it was > 100 µM; in [4], > 100 µM; in assay [5] it was 3.77 µM; in [6] it was > 100 µM. Further, the TGI was 21.2 µM in assay [7], > 100 µM in assay [8], > 100 µM in [9] and > 100 µM in [10].
For the compound `COc1ccccc1NC(=O)c1ccc(/C=C/C(=O)c2nccn2C)cc1`, the GI50 in assay [1] was 0.472 µM; in [2] it was 0.57 µM; in assay [3], 0.616 µM; in assay [4] it was 0.504 µM; in assay [5], 0.648 µM; in assay [6], 0.542 µM. The GI50 in assay [7] is 0.584 µM; in assay [8] it was 0.74 µM; in assay [9] it was 0.561 µM; in assay [10] it was 0.278 µM. Besides, the TGI in assay [1] is 0.986 µM; in [2], 1.44 µM; in [3] it was 1.73 µM; in assay [4], 1.09 µM; in assay [5], 1.68 µM; in [6] it was 1.34 µM. For the same compound, the TGI in assay [7] amounted to 1.52 µM; in assay [8], 5.67 µM; in assay [9], 1.5 µM; in assay [10], 0.605 µM.
Regarding `CC1=C(CCCOC(=O)NCCCl)C2=C(C)C3(CC3)[C@@](C)(O)C(=O)C2=C1`, the GI50 is 2.02 µM in assay [1]; 2.63 µM in assay [2]; 1.85 µM in assay [3]; 1.14 µM in assay [4]; 1.73 µM in assay [5]; 2.71 µM in assay [6]. Further, the GI50 in [7] was 3.99 µM; in assay [8], 2.7 µM; in [9] it was 1.83 µM; in assay [10], 3.13 µM. In addition, the TGI was 4.96 µM in [1]; 8.03 µM in assay [2]; 4.22 µM in assay [3]; > 100 µM in assay [4]; 3.35 µM in [5]; 8.16 µM in assay [6]. Further, the TGI in assay [7] is 21.4 µM; in [8] it was > 100 µM; in assay [9], 9.17 µM; in assay [10], 19.8 µM.
